Values quoted from earlier work in patent EP4632015A1, “COMPOUNDS FOR USE IN IN VIVO FLUORESCENCE-LIFETIME IMAGING” (Université de Bourgogne, priority 2024, dated 2025).

Conditions: in a biological environment

lifetime | Structure (SMILES)
less than 1 ns | CC1(C)C(=CC=C2CCCC(C=CC3=[N+](CCCCCC(=O)[O-])c4ccc(S(=O)(=O)[O-])cc4C3(C)C)=C2Oc2ccc(S(=O)(=O)[O-])cc2)N(CCCCS(=O)(=O)[O-])c2ccc(S(=O)(=O)[O-])cc21.[Na+].[Na+].[Na+].[Na+] [IRDye800CW]
less than 1 ns | CC1(C)C(/C=C/C=C/C=C/C=C2\N(CCCCS(=O)(=O)[O-])c3ccc4ccccc4c3C2(C)C)=[N+](CCCCS(=O)(=O)[O-])c2ccc3ccccc3c21.[Na+] [ICG]
